From patent US20240261418A1, “SOS1 DEGRADING AGENT AND PREPARATION METHOD THEREFOR AND APPLICATION THEREOF” (SHANGHAI LEADINGTAC PHARMACEUTICAL CO. LTD., priority 2021, published 2024)

What was measured:
KRAS-G12C/SOS1 = molecular target: T1, KRAS-G12C/SOS1 (Homo sapiens, UniProt Q07889); test: KRAS-G12C/SOS1 binding assay (HTRF); conditions: inhibition of KRAS-G12C/SOS1 binding
T1 construct: purchased Cisbio 63ADK000CB16PEG
T1 sequence (Q07889 1-1333): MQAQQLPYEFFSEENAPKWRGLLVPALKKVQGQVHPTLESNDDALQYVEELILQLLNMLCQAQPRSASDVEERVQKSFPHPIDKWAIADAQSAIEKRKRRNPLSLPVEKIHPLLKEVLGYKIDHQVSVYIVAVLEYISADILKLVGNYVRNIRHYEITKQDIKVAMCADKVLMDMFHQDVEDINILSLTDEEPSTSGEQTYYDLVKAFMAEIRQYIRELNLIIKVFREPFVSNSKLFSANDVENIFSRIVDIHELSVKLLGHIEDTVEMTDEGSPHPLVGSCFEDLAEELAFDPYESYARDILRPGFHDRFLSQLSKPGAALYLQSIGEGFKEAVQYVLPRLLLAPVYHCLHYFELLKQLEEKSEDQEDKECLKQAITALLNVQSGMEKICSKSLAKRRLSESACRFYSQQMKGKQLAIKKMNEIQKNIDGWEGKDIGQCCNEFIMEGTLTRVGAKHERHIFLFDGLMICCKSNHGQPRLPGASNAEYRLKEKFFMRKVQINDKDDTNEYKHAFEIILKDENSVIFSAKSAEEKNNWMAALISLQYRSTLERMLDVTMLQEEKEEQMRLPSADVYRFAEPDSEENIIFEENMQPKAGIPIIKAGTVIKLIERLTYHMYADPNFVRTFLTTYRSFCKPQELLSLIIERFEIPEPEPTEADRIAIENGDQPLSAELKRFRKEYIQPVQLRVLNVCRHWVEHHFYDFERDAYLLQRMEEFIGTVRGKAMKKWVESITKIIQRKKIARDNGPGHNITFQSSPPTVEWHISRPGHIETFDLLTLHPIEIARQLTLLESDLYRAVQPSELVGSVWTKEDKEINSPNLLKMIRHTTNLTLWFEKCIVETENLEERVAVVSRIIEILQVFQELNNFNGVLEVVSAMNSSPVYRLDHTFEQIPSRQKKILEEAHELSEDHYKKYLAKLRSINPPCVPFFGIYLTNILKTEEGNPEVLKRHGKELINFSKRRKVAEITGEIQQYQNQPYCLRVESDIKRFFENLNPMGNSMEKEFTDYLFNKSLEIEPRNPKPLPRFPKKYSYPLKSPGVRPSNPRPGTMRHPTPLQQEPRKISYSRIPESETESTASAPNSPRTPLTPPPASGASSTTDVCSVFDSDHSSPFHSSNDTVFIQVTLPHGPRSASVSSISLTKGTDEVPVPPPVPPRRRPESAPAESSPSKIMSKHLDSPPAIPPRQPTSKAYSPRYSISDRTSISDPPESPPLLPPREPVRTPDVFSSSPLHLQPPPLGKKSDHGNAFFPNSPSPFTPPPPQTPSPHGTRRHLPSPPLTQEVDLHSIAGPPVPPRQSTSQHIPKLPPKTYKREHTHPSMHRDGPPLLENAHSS
Experimental: Test Example 1: KRAS-G12C/SOS1 Binding Assay
The following method was used to determine the extent of inhibition of KRAS-G12C/SOS1 binding by the preferred compounds of the present invention under in vitro conditions. In this method, the competitive inhibition of KRAS-G12C/SOS1 binding by the preferred compounds was assayed by the homogeneous time-resolved fluorescence (HTRF) technology using the KRAS-G12C/SOS1 binding assay kit (Cisbio, 63ADK000CB16PEG).
The experimental procedures were as follows (refer to the kit instructions for details): the compounds of the present invention were each firstly dissolved in DMSO at a concentration of 20 mM, and then diluted in an equal gradient with a buffer in the kit, so that the final concentrations of the test compounds in the reaction system were in a range of 10000 nM-0.04 nM, and the final concentration of DMSO was 0.5%. 2 μL of the compounds were each incubated with 4 μL of 1×Tag1-SOS1, 4 μL of 1×Tag2-KRAS-G12C (containing 10 μM guanosine triphosphate, GTP) at 25° C. for 15 min. Then 5 μL of 1×Anti-Tag1-Tb3+ and 5 μL of 1×Anti-Tag2-XL665 were added to the reaction system, and the mixture was incubated on ice for 3 h. After the incubation, the fluorescence intensity of each well was measured at the excitation wavelength of 337 nm, the fluorescence intensity of each well was read at the emission wavelengths of 620 nm and 665 nm on a microplate reader EnVision (PerkinElmer, 2105) in an HTRF mode, and the Ratio value was calculated by the formula Ratio=(665 nm/620 nm)×[…]. The inhibition rates of the compounds at each concentration were calculated by comparing the fluorescence intensity ratio with that of the control group, and then nonlinear curve fitting was performed by GraphPad Prism 8 in the logarithmic concentration-inhibition rate to obtain the IC50 values of the compounds, as shown in Table 1.

SOS1 protein = molecular target: T2, SOS1 protein (Homo sapiens, UniProt Q07889); test: SOS1 degradation assay (Western blot) in NCI-H358 cells; assay type: cell-based; conditions: NCI-H358 (KRAS G12C), 24 h
T2 sequence (Q07889 1-1333): T1 sequence (Q07889 1-1333)
Experimental: The specific procedures were as follows:
0.95 mL of cells were seeded into each well of a 24-well cell culture plate to achieve a cell density of 5×10^5 cells/well; the cell plate was incubated in an incubator at 37° C. with 5% CO2 overnight. Then 50 μL of the compound solution after dilution was added to each of the wells with the corresponding cells, so that the final concentration of the compound was in a range of 0.03-3000 nM.
After dosing, the cell plate was incubated in an incubator at 37° C. with 5% CO2 for 24 h. […] After the plate was left to stand on ice for 30 min, the protein lysate in each well was transferred to a 1.5 mL centrifuge tube and centrifuged at 15000 g for 20 min at 4° C. The cell lysate supernatant after centrifugation was cryopreserved at −80° C. for testing and was used for determining the degradation level of the SOS1 protein by a WB method. The concentration of total protein in the cell lysate supernatant was determined using the BCA Protein Quantification Kit (Tiangen, PA115-02).
The concentration of total protein in the cell lysate was determined by BCA. The total protein was adjusted to 0.5 μg/μL with PBS and 5×SDS- PAGE protein loading buffer (Beyotime, P001L), incubated in a water bath at 100° C. for 15 min, incubated in an ice bath on ice for 5 min, centrifuged at 14000 g for 1 min at 4° C., and mixed well as a loading sample for WB. Protein electrophoresis was performed on a precast gel (KeyGEN, KGMG010W15) with a loading volume of 10 μL (total protein: 5 μg) using a Tris-MOPS-SDS running solution (Adamas, P1598253) at a constant voltage of 120 V for 55 min. After the electrophoresis, the protein on the gel strip was transferred to a PVDF membrane at a constant current of 250 mA for 65 min. After the membrane transfer, the membrane was incubated in 1× QuickBlock blocking buffer (Beyotime, P0235) for 30 min at room temperature. […] The protein map was subjected to gray value analysis by the chemiluminescence imaging system from Clinx. […] Then the degradation rate was calculated by comparing the gray correction value with the gray correction value of the control group. Then nonlinear curve fitting was performed by GraphPad Prism 8 in the logarithmic concentration-inhibition rate to obtain the DC50 and Dmax values of the compounds.

| SMILES | IC50 (KRAS-G12C/SOS1) | DC50 (SOS1 protein) | Dmax (SOS1 protein) | NCI-H358 (G12C) Dmax (SOS1 protein) |
| --- | --- | --- | --- | --- |
| CNCc1ccccc1-c1csc([C@@H](C)Nc2nc(C)nc3cc(OC)c([C@H]4CC[C@H](C(=O)N5CCN(CC6CCC7(CC6)CCN(C(=O)c6ccc(Cl)c(N8CCC(=O)NC8=O)c6)CC7)CC5)CC4)cc23)c1 [Example 2, 1-(2-chloro-5-(9-((4-((1R,4R)-4-(7-methoxy-2-methyl-4-(((R)-1-(4-(2-((methylamino)methyl)phenyl)thien-2-yl)ethyl)amino)quinazolin-6-yl)cyclohexane-1-carbonyl)piperazin-1-yl)methyl)-3-azaspiro[5.5]undecane-3-carbonyl)phenyl)dihydropyrimidine-2,4(1H,3H)-dione] | ≤ 15 nM | < 50 nM | 80 to 100% |  |
| CNCc1ccccc1-c1csc([C@@H](C)Nc2nc(C)nc3cc(OC)c([C@H]4CC[C@H](C(=O)N5CCC(CCCC6CCN(C(=O)c7ccc(Cl)c(N8CCC(=O)NC8=O)c7)CC6)CC5)CC4)cc23)c1 [Example 3, 1-(2-chloro-5-(4-(3-(1-((1R,4R)-4-(7-methoxy-2-methyl-4-(((R)-1-(4-(2-((methylamino)methyl)phenyl)thien-2-yl)ethyl)amino)quinazolin-6-yl)cyclohexane-1-carbonyl)piperidin-4-yl)propyl)piperidine-1-carbonyl)phenyl)dihydropyrimidine-2,4(1H,3H)-dione] | 15 to 30 nM | 100 to 500 nM | 50 to 80% |  |
| COc1cc2nc(C)nc(N[C@H](C)c3cc(N)cc(C(F)(F)F)c3)c2cc1C1CCC(C(=O)N2CCC(CCOCC3CCN(C(=O)c4ccc5c(c4)C(=O)N(C4CCC(=O)NC4=O)C5=O)CC3)CC2)CC1 (stereo partly drawn) [Example 11, 5-(4-((2-(1-((1S,4S)-4-(4-(((R)-1-(3-amino-5-(trifluoromethyl)phenyl)ethyl)amino)-7-methoxy-2-methylquinazolin-6-yl)cyclohexane-1-carbonyl)piperidin-4-yl)ethoxy)methyl)piperidine-1-carbonyl)-2-(2,6-dioxopiperidin-3-yl)isoindoline-1,3-dione] |  |  |  | A (80≤Dmax (%)≤100) |
| COc1cc2nc(C)nc(N[C@@H](C)c3cc(N)cc(C(F)(F)F)c3)c2cc1[C@H]1CC[C@@H](C(=O)N2CCN(CCC3CCC4(CC3)CCN(C(=O)c3ccc(Cl)c(N5CCC(=O)NC5=O)c3)CC4)CC2)CC1 [Example 6, 1-(5-(9-(2-(4-((1S,4S)-4-(4-(((R)-1-(3-amino-5-(trifluoromethyl)phenyl)ethyl)amino)-7-methoxy-2-methylquinazolin-6-yl)cyclohexane-1-carbonyl)piperazin-1-yl)ethyl)-3-azaspiro[5.5]undecane-3-carbonyl)-2-chlorophenyl)dihydropyrimidine-2,4(1H,3H)-dione] |  | 1000 to 10000 nM |  | C (30≤Dmax (%)<50) |
| Cc1nc(N[C@H](C)c2cc(N)cc(C(F)(F)F)c2)c2cc([C@H]3CC[C@H](C(=O)N4CCN(CC5CCC6(CC5)CCN(C(=O)c5ccc(Cl)c(N7CCC(=O)NC7=O)c5)CC6)CC4)CC3)ncc2n1 [Example 50, 1-(5-(9-((4-((1R,4R)-4-(4-(((R)-1-(3-amino-5-(trifluoromethyl)phenyl)ethyl)amino)-2-methylpyrido[3,4-d]pyrimidin-6-yl)cyclohexane-1-carbonyl)piperazin-1-yl)methyl)-3-azaspiro[5.5]undecane-3-carbonyl)-2-chlorophenyl)dihydropyrimidine-2,4(1H,3H)-dione] |  |  |  | B (50≤Dmax (%)<80) |
| COc1cc2nc(C)nc(N[C@H](C)c3cc(N)cc(C(F)(F)F)c3)c2cc1[C@H]1CC[C@H](C(=O)N2CCC(CCCN(C)C3CCN(Cc4ccc(Cl)c(N5CCC(=O)NC5=O)c4)CC3)CC2)CC1 [Example 10, 1-(5-((4-((3-(1-((1R,4R)-4-(4-(((R)-1-(3-amino-5-(trifluoromethyl)phenyl)ethyl)amino)-7-methoxy-2-methylquinazolin-6-yl)cyclohexane-1-carbonyl)piperidin-4-yl)propyl)(methyl)amino)piperidin-1-yl)methyl)-2-chlorophenyl)dihydropyrimidine-2,4(1H,3H)-dione] |  |  |  | D (Dma (%)<30) |

Continued, in another order:

| IC50 (KRAS-G12C/SOS1) | DC50 (SOS1 protein) | Dmax (SOS1 protein) | SMILES | NCI-H358 (G12C) Dmax (SOS1 protein) |
| --- | --- | --- | --- | --- |
|  |  | 30 to 50% | CCNc1cc([C@@H](C)Nc2nc(C)nc3cc(OC)c([C@H]4CC[C@H](C(=O)N5CCN(CC6CCC7(CC6)CCN(C(=O)c6ccc(Cl)c(N8CCC(=O)NC8=O)c6)CC7)CC5)CC4)cc23)cc(C(F)(F)F)c1 [Example 7, 1-(2-chloro-5-(9-((4-((1R,4R)-4-(4-(((R)-1-(3-(ethylamino)-5-(trifluoromethyl)phenyl)ethyl)amino)-7-methoxy-2-methylquinazolin-6-yl)cyclohexane-1-carbonyl)piperazin-1-yl)methyl)-3-azaspiro[5.5]undecane-3-carbonyl)phenyl)dihydropyrimidine-2,4(1H,3H)-dione] |  |
| ≤ 15 nM | 50 to 100 nM | 80 to 100% | COc1cc2nc(C)nc(N[C@H](C)c3cc(-c4ccccc4CN(C)C)cs3)c2cc1[C@H]1CC[C@H](C(=O)N2CCN(CC3CCC4(CC3)CCN(C(=O)c3ccc(Cl)c(N5CCC(=O)NC5=O)c3)CC4)CC2)CC1 [Example 4, 1-(2-chloro-5-(9-((4-((1R,4R)-4-(4-(((R)-1-(4-(2-((dimethylamino)methyl)phenyl)thien-2-yl)ethyl)amino)-7-methoxy-2-methylquinazolin-6-yl)cyclohexane-1-carbonyl)piperazin-1-yl)methyl)-3-azaspiro[5.5]undecane-3-carbonyl)phenyl)dihydropyrimidine-2,4(1H,3H)-dione] |  |
